# Patent US4593090A, “Novel nitrosourea compounds, method for preparing same, and pharmaceutical composition containing same” (Gogo Kimura, priority 1981, dated 1986)
# Read-outs that look alike come from different tables or passages of the source.
# Legend:
# [1] = Diuretic activity, acute sodium loaded mouse screening test; assay type: in vivo, male mice; settings: 50 mg/kg oral in 1% saline; for Cl^- / K^+ / Na^+: urine
# Method: The diuretic activity of the compounds of this invention was assayed by the diuresis screening test referred to as "acute sodium loaded mouse". This test was carried out by the following method.
# The acute sodium loaded mouse screening test was carried out by using a 10-membered group of male mice (each weighing 18 to 24 g). Test compounds were incorporated in 1% saline (NaCl) solution and orally administered in a volume of 10 ml/kg. The mice were placed in metabolic cages. Each treated group consisted of 10-members. Five members were placed in one cage. Tests were conducted by oral administrations of (A) 1% saline (NaCl) solution to the control group and (B) 1% saline (NaCl) solution containing a test compound according to this invention.
# The determination was carried out for sodium, potassium, and chlorine in each pooled urine sample. The determination of sodium and potassium was carried out by flame photometer. Chlorine was determined by chloride analysis apparatus. The analytical values of sodium, potassium, and chlorine were shown with an average mg equivalent (m Eq)/Kg/5 hours, and the diuretic activity was shown with an average urine volume (ml)/Kg/5 hours.
# Leukemia L1210 [2] = test: Activity against Leukemia L1210, intraperitoneal, increase in life span of mice; assay type: in vivo, female mice (BDF1 family); settings: for ED (maximum ILS) / ED30: Mus musculus, L1210, ip, ip once a day for 5 successive days; for ED (maximum ILS): daily dosage giving maximum increase of life span, read-out: O.D. (optimum dosage); for ED30: daily dosage increasing average survival days by 30%, read-out: ILS30; for Survivors after 60 days / Max. ILS % / Therapeutic ratio TR: ip; for Survivors after 60 days: 6-membered group; for Max. ILS %: 60-day observation, versus control; for Therapeutic ratio TR: O.D./ILS30
# How it was run: (§1)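 Beginning 24 hours after intraperitoneal implantation of 1×10^5 leukemia cells, six-mouse groups of female BDF1 mice receive the test compound once daily for five consecutive days by the ip or oral route. Survival is recorded up to 60 days and compared with untreated controls.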
# Leukemia L1210 [3] = test: Activity against Leukemia L1210, oral, increase in life span of mice; assay type: in vivo, female mice (BDF1 family)
# How it was run: as §1
# [4] = Acute toxicity (LD50, Behrens-Karber method); assay type: in vivo, ICR mice; settings: mouse, in vivo, ip, mortality during 30 days
# Method: Test compounds, dissolved or suspended in 0.5% aqueous CMC, were each intraperitoneally administered to ICR mice in a dose of 0.1 ml per 10 g body weight. LD50 (mg/kg) value of each test compound was calculated from the mortality of mice during 30 days by the Behrens-Karber method.
# Ehrlich acites carcinoma = test: Growth-inhibiting effect against Ehrlich acites carcinoma; assay type: in vivo, male mice; settings: Mus musculus, Ehrlich, 120 h, 5 days; for response vs control in vivo at 25 mg/kg: 25 mg/kg/day ip; for response vs control in vivo at 100 mg/kg: 100 mg/kg/day ip
# How it was run: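 Male mice (groups of 6) implanted intraperitoneally with 1×10^7 Ehrlich ascites cells; compounds in 1% Nikkol HCO-60 given i.p. once daily for 5 days starting 24 hrs post-implantation. Total packed cell volume measured at day 7; T/C% vs untreated group, scored - (100-66), + (65-41), ++ (40-11), +++ (10-0).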
Compound,Urine volume [1],Cl^- [1],K^+ [1],Na^+ [1],ED (maximum ILS) (Leukemia L1210 [2]),ED30 (Leukemia L1210 [2]),Survivors after 60 days (Leukemia L1210 [2]),Max. ILS % (Leukemia L1210 [2]),Therapeutic ratio TR (Leukemia L1210 [2]),"ED (maximum ILS) (Leukemia L1210 [3]; Mus musculus, L1210, oral once a day for 5 successive days, daily dosage giving maximum increase of life span, read-out: O.D. (optimum dosage))","ED30 (Leukemia L1210 [3]; Mus musculus, L1210, oral once a day for 5 successive days, daily dosage increasing average survival days by 30%, read-out: ILS30)","Survivors after 60 days (Leukemia L1210 [3]; oral, 6-membered group)","Max. ILS % (Leukemia L1210 [3]; oral, 60-day observation, versus control)","Therapeutic ratio TR (Leukemia L1210 [3]; oral, O.D./ILS30)",LD50 at 720 h [4],response vs control in vivo at 25 mg/kg (Ehrlich acites carcinoma; read-out: Activity),response vs control in vivo at 25 mg/kg (Ehrlich acites carcinoma; read-out: T/C %),response vs control in vivo at 100 mg/kg (Ehrlich acites carcinoma; read-out: Activity),response vs control in vivo at 100 mg/kg (Ehrlich acites carcinoma; read-out: T/C %)
"CC(C)CO[C@H]1O[C@H](CN(CC2CCCO2)C(=O)N(CCCl)N=O)[C@@H](O)[C@H](O)[C@H]1O (stereo partly drawn) [Compound 23, 3-tetrahydrofurfuryl-3-(isobutyl α-D-glucopyranose-6-yl)-1-(2-chloroethyl)-1-nitrosourea]",10.2 ml/kg/5 hrs.,0.8 mEq/kg/5 hrs.,1.0 mEq/kg/5 hrs.,0.7 mEq/kg/5 hrs.,200 mg/kg,3 mg/kg,5/6,> 630%,66.7,250 mg/kg,8.74 mg/kg,5/6,> 625%,28.6,620 mg/kg,0 to 10%,0%,0 to 10%,0%
"COCCCN(C(=O)N(CCCl)N=O)C1C(OCC(C)C)OC(CO)C(O)C1O [Compound 74, 3-(3-methoxy-n-propyl)-3-(isobutyl α-D-glucopyranose-2-yl)-1-(2-chloroethyl)-1-nitrosourea]",9.4 ml/kg/5 hrs.,0.7 mEq/kg/5 hrs.,0.8 mEq/kg/5 hrs.,0.6 mEq/kg/5 hrs.,170 mg/kg,3.92 mg/kg,6/6,> 700%,43.2,–,–,–,–,–,560 mg/kg,0 to 10%,0%,0 to 10%,0%
"COC(C)CN(C(=O)N(CCCl)N=O)C1C(O)C(CO)OC(OC2CCCCC2)C1O [Compound 86, 3-(2-methoxy-n-propyl)-3-(cyclohexyl α-D-glucopyranose-3-yl)-1-(2-chloroethyl)-1-nitrosourea]",10.2 ml/kg/5 hrs.,0.9 mEq/kg/5 hrs.,1.0 mEq/kg/5 hrs.,0.7 mEq/kg/5 hrs.,200 mg/kg,4.9 mg/kg,4/6,> 430%,40.8,–,–,–,–,–,695 mg/kg,0 to 10%,0%,0 to 10%,0%
"COCCN(C(=O)N(CCCl)N=O)C1C(CO)OC(OCC(C)C)C(O)C1O [Compound 93, 3-(2-methoxyethyl)-3-(isobutyl α-D-glucopyranose-4-yl)-1-(2-chloroethyl)-1-nitrosourea]",9.6 ml/kg/5 hrs.,0.7 mEq/kg/5 hrs.,0.9 mEq/kg/5 hrs.,0.6 mEq/kg/5 hrs.,160 mg/kg,4.49 mg/kg,3/6,> 370%,35.6,–,–,–,–,–,530 mg/kg,0 to 10%,0%,0 to 10%,0%
"COCC(C)N(C[C@H]1O[C@H](OCC(C)C)[C@H](O)[C@@H](O)[C@H]1O)C(=O)N(CCCl)N=O (stereo partly drawn) [Compound 110, 3-(1-methyl-2-methoxyethyl)-3-(isobutyl α-D-galactopyranose-6-yl)-1-(2-chloroethyl)-1-nitrosourea]",8.8 ml/kg/5 hrs.,0.6 mEq/kg/5 hrs.,0.8 mEq/kg/5 hrs.,0.5 mEq/kg/5 hrs.,200 mg/kg,3.69 mg/kg,4/6,> 435%,54.2,–,–,–,–,–,680 mg/kg,0 to 10%,0%,0 to 10%,0%
"COC(C)CO[C@H]1O[C@H](CN(CC2CCCO2)C(=O)N(CCCl)N=O)[C@H](O)[C@H](O)[C@H]1O (stereo partly drawn) [Compound 117, 3-tetrahydrofurfuryl-3-(2-methoxy-n-propyl α-D-galactopyranose-6-yl)-1-(2-chloroethyl)-1-nitrosourea]",8.4 ml/kg/5 hrs.,0.7 mEq/kg/5 hrs.,0.9 mEq/kg/5 hrs.,0.5 mEq/kg/5 hrs.,200 mg/kg,3.3 mg/kg,6/6,> 700%,60.6,–,–,–,–,–,610 mg/kg,0 to 10%,0%,0 to 10%,0%
"CCOCCCN(C(=O)N(CCCl)N=O)[C@H]1[C@H](OC(C)CC)OC[C@H](O)[C@@H]1O (stereo partly drawn) [Compound 157, 3-(3-ethoxy-n-propyl)-3-(sec-butyl α-L-arabinopyranose-2-yl)-1-(2-chloroethyl)-1-nitrosourea]",10.5 ml/kg/5 hrs.,1.1 mEq/kg/5 hrs.,1.0 mEq/kg/5 hrs.,0.8 mEq/kg/5 hrs.,170 mg/kg,2.94 mg/kg,6/6,> 700%,57.8,–,–,–,–,–,550 mg/kg,0 to 10%,0%,0 to 10%,0%
"CC(C)(C)N(C[C@H]1O[C@H](OCCN2CCOCC2)[C@H](O)[C@@H](O)[C@@H]1O)C(=O)N(CCCl)N=O [Compound 181, 3-tert-butyl-3-(2-morpholinoethyl α-D-glucopyranose-6-yl)-1-(2-chloroethyl)-1-nitrosourea]",13.1 ml/kg/5 hrs.,1.3 mEq/kg/5 hrs.,1.2 mEq/kg/5 hrs.,1.1 mEq/kg/5 hrs.,160 mg/kg,2.89 mg/kg,6/6,> 700%,55.4,–,–,–,–,–,530 mg/kg,0 to 10%,0%,0 to 10%,0%
